Assay results as given in patent publication US11014955B2, “Cyclic peroxides as prodrugs for selective delivery of agents” (THE REGENTS OF THE UNIVERSITY OF CALIFORNIA, priority 2014, dated 2021).

Tested on: P. falc FCB
Assay: Biological activity EC50, P. falc FCB
Type: cell-based
Details: Plasmodium falciparum; Target (Cell Line): P. falc FCB

Row | EC50 [nM] | Compound
1 | 17.9 | CN(C)c1cccc2c(S(=O)(=O)OC34CC5CC(C3)C3(OOC6(CCCCC6)O3)C(C5)C4)cccc12 (centres unmarked) [Example 18, dispiro[adamantane-2,2′-[1,3,5]trioxolane-4′,1″-cyclohexane]-7-yl 5-(dimethylamino)naphthalene-1-sulfonate]
2 | 14.6 | CN(C)c1cccc2c(S(=O)(=O)NCCCNC3CCC4(CC3)OOC3(O4)C4CC5CC(C4)CC3C5)cccc12 (centres unmarked) [Example 19, 5-(dimethylamino)-N-[3-({dispiro[adamantane-2,2′-[1,3,5]trioxolane-4′,1″-cyclohexane]-4″-yl}amino)propyl]naphthalene-1-sulfonamide]
